# Experimental data reported in patent US20200360352A1, “USE OF RIFAMYCIN-NITROIMIDAZOLE COUPLING MOLECULE” (priority 2019, published 2020).
# Read-outs that look alike come from different tables or passages of the source.
# What was measured:
# Assay type in all cases: cell-based
# [1] = tested on: Mycobacterium abscessus; assay: MBC, plating of MIC wells and CFU count; settings: Mycobacteroides abscessus, read-out: Minimum Bactericidal Concentration (MBC)
# [2] = tested on: Mycobacterium avium; assay: MBC, plating of MIC wells and CFU count; settings: read-out: Minimum Bactericidal Concentration (MBC)
# [3] = tested on: Mycobacterium abscessus; assay: MIC, micro broth dilution with resazurin readout; settings: Mycobacteroides abscessus, read-out: Minimum Inhibitory Concentration (MIC)
# [4] = tested on: Mycobacterium kansasii; assay: MIC, micro broth dilution with resazurin readout; settings: read-out: Minimum Inhibitory Concentration (MIC)
# [5] = tested on: Mycobacterium avium; assay: MIC, micro broth dilution with resazurin readout; settings: read-out: Minimum Inhibitory Concentration (MIC)
# [6] = tested on: Mycobacterium kansasii; assay: MBC, plating of MIC wells and CFU count; settings: read-out: Minimum Bactericidal Concentration (MBC)
# [7] = tested on: Mycobacterium fortuitum; assay: MIC, micro broth dilution with resazurin readout; settings: Mycolicibacterium fortuitum, MH Culture Medium, read-out: Minimum Inhibitory Concentration (MIC)
# [8] = tested on: Mycodacterium chelonei; assay: MIC, micro broth dilution with resazurin readout; settings: MH Culture Medium; Chelonei (standard strain); read-out: Minimum Inhibitory Concentration (MIC)
# [9] = tested on: Mycobacterium massiliense; assay: MIC, micro broth dilution with resazurin readout; settings: Mycobacteroides abscessus, MH Culture Medium, read-out: Minimum Inhibitory Concentration (MIC)
# [10] = tested on: Mycobacterium intracellulare; assay: MIC, micro broth dilution with resazurin readout; settings: MH Culture Medium, read-out: Minimum Inhibitory Concentration (MIC)
# [11] = 7H9 Broth, Mycobacterium avium Rough
# [12] = 7H9 Broth, Mycobacterium avium Smooth
# [13] = MH Broth, Mycobacterium avium Rough
# [14] = MH Broth, Mycobacterium avium Smooth
# [15] = clinically isolated strain Fortuitum (S103)
# [16] = clinically isolated strain Fortuitum (S111)
# [17] = clinically isolated strain Massiliense (D10)
# [18] = clinically isolated strain Massiliense (D14)
# [19] = clinically isolated strain Massiliense (D18)
# [20] = MH Culture Medium, Kansasii (standard strain)
# [21] = MH Culture Medium, clinically isolated strain Kansasii (S9)
# [22] = MH Culture Medium, clinically isolated strain Kansasii (S199)
# [23] = MH Culture Medium, clinically isolated strain Kansasii (S520)
# [24] = MH Culture Medium, clinically isolated strain Kansasii (S609)
# [25] = MH Culture Medium, Avium (standard strain)
# [26] = MH Culture Medium, clinically isolated strain Avium (S31)
# [27] = MH Culture Medium, clinically isolated strain Avium (S123)
# [28] = MH Culture Medium, clinically isolated strain Avium (S559)
# [29] = MH Culture Medium, clinically isolated strain Avium (S568)
# [30] = MH Culture Medium, clinically isolated strain Avium (S577)
# [31] = MH Culture Medium, clinically isolated strain Avium (S597)
# [32] = MH Culture Medium, clinically isolated strain Avium (S602)
# [33] = Intracellulare (standard strain)
# [34] = clinically isolated strain Intracellulare (S90)
# [35] = clinically isolated strain Intracellulare (S261)
# [36] = clinically isolated strain Intracellulare (S269)
# [37] = clinically isolated strain Intracellulare (S290)
# [38] = clinically isolated strain Intracellulare (S291)
# [39] = clinically isolated strain Intracellulare (S298)
# [40] = clinically isolated strain Intracellulare (S442)
# [41] = clinically isolated strain Intracellulare (S541)
# [42] = clinically isolated strain Intracellulare (S623)
# [43] = clinically isolated strain Intracellulare (ZPS)
smiles,measurement,setting,value
NCC[C@H](O)C(=O)N[C@@H]1C[C@H](N)[C@@H](O[C@H]2O[C@H](CN)[C@@H](O)[C@H](O)[C@H]2O)[C@H](O)[C@H]1O[C@H]1O[C@H](CO)[C@@H](O)[C@H](N)[C@H]1O [Amikacin],MBC,[1]; 7H9 Broth,> 64 µg/mL
same,MBC,[1]; MH Broth,> 64 µg/mL
same,MBC,[2]; [11],> 64 µg/mL
same,MBC,[2]; [12],> 64 µg/mL
same,MBC,[2]; [13],> 64 µg/mL
same,MBC,[2]; [14],> 64 µg/mL
same,MIC,[3]; 7H9 Broth,32 µg/mL
same,MIC,[3]; MH Broth,16 µg/mL
same,MIC,[4]; 7H9 Broth,16 µg/mL
same,MIC,[4]; MH Broth,1 µg/mL
same,MIC,[5]; [11],> 64 µg/mL
same,MIC,[5]; [12],2 µg/mL
same,MIC,[5]; [13],2 µg/mL
same,MIC,[5]; [14],2 µg/mL
same,MBC,[6]; 7H9 Broth,64 µg/mL
same,MBC,[6]; MH Broth,> 64 µg/mL
O=C(O)c1cn(C2CC2)c2cc(N3CCNCC3)c(F)cc2c1=O [Ciprofloxacin],MBC,[1]; 7H9 Broth,> 64 µg/mL
same,MBC,[1]; MH Broth,> 64 µg/mL
same,MBC,[2]; [12],> 64 µg/mL
same,MBC,[2]; [14],> 64 µg/mL
same,MIC,[3]; 7H9 Broth,16 µg/mL
same,MIC,[3]; MH Broth,> 64 µg/mL
same,MIC,[4]; 7H9 Broth,> 64 µg/mL
same,MIC,[4]; MH Broth,> 64 µg/mL
same,MIC,[5]; [12],> 64 µg/mL
same,MIC,[5]; [14],> 64 µg/mL
same,MBC,[6]; 7H9 Broth,> 64 µg/mL
same,MBC,[6]; MH Broth,> 64 µg/mL
CC[C@H]1OC(=O)[C@H](C)[C@@H](O[C@H]2C[C@@](C)(OC)[C@@H](O)[C@H](C)O2)[C@H](C)[C@@H](O[C@@H]2O[C@H](C)C[C@H](N(C)C)[C@H]2O)[C@](C)(OC)C[C@@H](C)C(=O)[C@H](C)[C@@H](O)[C@]1(C)O [Clarithromycin],MBC,[1]; 7H9 Broth,> 64 µg/mL
same,MBC,[1]; MH Broth,> 64 µg/mL
same,MIC,[7]; Fortuitum (standard strain),32 µg/mL
same,MIC,[7]; [15],> 64 µg/mL
same,MIC,[7]; [16],2 µg/mL
same,MBC,[2]; [11],> 64 µg/mL
same,MBC,[2]; [12],> 64 µg/mL
same,MBC,[2]; [13],> 64 µg/mL
same,MBC,[2]; [14],> 64 µg/mL
same,MIC,[8],0.5 µg/mL
same,MIC,[9]; [17],0.25 µg/mL
same,MIC,[9]; [18],0.0625 µg/mL
same,MIC,[9]; [19],0.0625 µg/mL
same,MIC,[3]; 7H9 Broth,16 µg/mL
same,MIC,[3]; MH Broth,64 µg/mL
same,MIC,[4]; 7H9 Broth,2 µg/mL
same,MIC,[4]; MH Broth,2 µg/mL
same,MIC,[4]; [20],0.0625 µg/mL
same,MIC,[4]; [21],0.125 µg/mL
same,MIC,[4]; [22],0.0625 µg/mL
same,MIC,[4]; [23],0.0625 µg/mL
same,MIC,[4]; [24],0.125 µg/mL
same,MIC,[5]; [11],> 64 µg/mL
same,MIC,[5]; [12],32 µg/mL
same,MIC,[5]; [13],> 64 µg/mL
same,MIC,[5]; [14],> 64 µg/mL
same,MIC,[5]; [25],0.0625 µg/mL
same,MIC,[5]; [26],0.125 µg/mL
same,MIC,[5]; [27],0.5 µg/mL
same,MIC,[5]; [28],0.25 µg/mL
same,MIC,[5]; [29],4 µg/mL
same,MIC,[5]; [30],0.25 µg/mL
same,MIC,[5]; [31],1 µg/mL
same,MIC,[5]; [32],1 µg/mL
same,MIC,[10]; [33],0.0625 µg/mL
same,MIC,[10]; [34],1 µg/mL
same,MIC,[10]; [35],1 µg/mL
same,MIC,[10]; [36],1 µg/mL
same,MIC,[10]; [37],1 µg/mL
same,MIC,[10]; [38],1 µg/mL
same,MIC,[10]; [39],2 µg/mL
same,MIC,[10]; [40],2 µg/mL
same,MIC,[10]; [41],64 µg/mL
same,MIC,[10]; [42],4 µg/mL
same,MIC,[10]; [43],1 µg/mL
same,MBC,[6]; 7H9 Broth,64 µg/mL
same,MBC,[6]; MH Broth,> 64 µg/mL
Cc1ncc([N+](=O)[O-])n1CCO [Metronidazole],MBC,[1]; 7H9 Broth,> 64 µg/mL
same,MBC,[1]; MH Broth,> 64 µg/mL
same,MIC,[7]; Fortuitum (standard strain),16 µg/mL
same,MIC,[7]; [15],8 µg/mL
same,MIC,[7]; [16],16 µg/mL
same,MBC,[2]; [12],> 64 µg/mL
same,MBC,[2]; [14],> 64 µg/mL
same,MIC,[8],16 µg/mL
same,MIC,[9]; [17],16 µg/mL
same,MIC,[9]; [18],16 µg/mL
same,MIC,[9]; [19],8 µg/mL
same,MIC,[3]; 7H9 Broth,> 64 µg/mL
same,MIC,[3]; MH Broth,> 64 µg/mL
same,MIC,[4]; 7H9 Broth,> 64 µg/mL
same,MIC,[4]; MH Broth,> 64 µg/mL
same,MIC,[4]; [20],8 µg/mL
same,MIC,[4]; [21],8 µg/mL
same,MIC,[4]; [22],8 µg/mL
same,MIC,[4]; [23],8 µg/mL
same,MIC,[4]; [24],8 µg/mL
same,MIC,[5]; [12],> 64 µg/mL
same,MIC,[5]; [14],> 64 µg/mL
same,MIC,[5]; [25],8 µg/mL
same,MIC,[5]; [26],16 µg/mL
same,MIC,[5]; [27],8 µg/mL
same,MIC,[5]; [28],8 µg/mL
same,MIC,[5]; [29],8 µg/mL
same,MIC,[5]; [30],8 µg/mL
same,MIC,[5]; [31],8 µg/mL
same,MIC,[5]; [32],32 µg/mL
same,MIC,[10]; [33],8 µg/mL
same,MIC,[10]; [34],16 µg/mL
same,MIC,[10]; [35],16 µg/mL
same,MIC,[10]; [36],16 µg/mL
same,MIC,[10]; [37],8 µg/mL
same,MIC,[10]; [38],8 µg/mL
same,MIC,[10]; [39],16 µg/mL
same,MIC,[10]; [40],8 µg/mL
same,MIC,[10]; [41],16 µg/mL
same,MIC,[10]; [42],8 µg/mL
same,MIC,[10]; [43],8 µg/mL
same,MBC,[6]; 7H9 Broth,> 64 µg/mL
same,MBC,[6]; MH Broth,> 64 µg/mL
COc1c(N2C[C@@H]3CCCN[C@@H]3C2)c(F)cc2c(=O)c(C(=O)O)cn(C3CC3)c12 [Moxifloxacin],MIC,[7]; Fortuitum (standard strain),1 µg/mL
same,MIC,[7]; [15],1 µg/mL
same,MIC,[7]; [16],0.5 µg/mL
same,MIC,[8],4 µg/mL
same,MIC,[9]; [17],32 µg/mL
same,MIC,[9]; [18],32 µg/mL
same,MIC,[9]; [19],8 µg/mL
same,MIC,[4]; [20],0.0625 µg/mL
same,MIC,[4]; [21],0.0625 µg/mL
same,MIC,[4]; [22],0.0625 µg/mL
same,MIC,[4]; [23],0.0625 µg/mL
same,MIC,[4]; [24],0.0625 µg/mL
same,MIC,[5]; [25],1 µg/mL
same,MIC,[5]; [26],8 µg/mL
same,MIC,[5]; [27],0.5 µg/mL
same,MIC,[5]; [28],1 µg/mL
same,MIC,[5]; [29],0.5 µg/mL
same,MIC,[5]; [30],0.5 µg/mL
same,MIC,[5]; [31],2 µg/mL
same,MIC,[5]; [32],4 µg/mL
same,MIC,[10]; [33],0.25 µg/mL
same,MIC,[10]; [34],2 µg/mL
same,MIC,[10]; [35],2 µg/mL
same,MIC,[10]; [36],2 µg/mL
same,MIC,[10]; [37],2 µg/mL
same,MIC,[10]; [38],1 µg/mL
same,MIC,[10]; [39],2 µg/mL
same,MIC,[10]; [40],2 µg/mL
same,MIC,[10]; [41],64 µg/mL
same,MIC,[10]; [42],2 µg/mL
same,MIC,[10]; [43],1 µg/mL
CO[C@H]1/C=C/O[C@@]2(C)Oc3c(C)c(O)c4c(c3C2=O)C2=NC3(CCN(CC(C)C)CC3)NC2=C(NC(=O)/C(C)=C\C=C\[C@H](C)[C@H](O)[C@@H](C)[C@@H](O)[C@@H](C)[C@H](OC(C)=O)[C@@H]1C)C4=O [Rifabutin],MIC,[7]; Fortuitum (standard strain),4 µg/mL
same,MIC,[7]; [15],32 µg/mL
same,MIC,[7]; [16],4 µg/mL
same,MIC,[8],64 µg/mL
same,MIC,[9]; [17],> 64 µg/mL
same,MIC,[9]; [18],64 µg/mL
same,MIC,[9]; [19],64 µg/mL
same,MIC,[4]; [20],0.0625 µg/mL
same,MIC,[4]; [21],0.0625 µg/mL
same,MIC,[4]; [22],0.0625 µg/mL
same,MIC,[4]; [23],0.0625 µg/mL
same,MIC,[4]; [24],0.0625 µg/mL
same,MIC,[5]; [25],0.0625 µg/mL
same,MIC,[5]; [26],0.0625 µg/mL
same,MIC,[5]; [27],0.0625 µg/mL
same,MIC,[5]; [28],0.0625 µg/mL
same,MIC,[5]; [29],0.0625 µg/mL
same,MIC,[5]; [30],0.0625 µg/mL
same,MIC,[5]; [31],0.0625 µg/mL
same,MIC,[5]; [32],0.0625 µg/mL
same,MIC,[10]; [33],0.0625 µg/mL
same,MIC,[10]; [34],0.125 µg/mL
same,MIC,[10]; [35],0.25 µg/mL
same,MIC,[10]; [36],0.0625 µg/mL
same,MIC,[10]; [37],0.0625 µg/mL
same,MIC,[10]; [38],0.0625 µg/mL
same,MIC,[10]; [39],0.5 µg/mL
same,MIC,[10]; [40],0.0625 µg/mL
same,MIC,[10]; [41],0.125 µg/mL
same,MIC,[10]; [42],0.25 µg/mL
same,MIC,[10]; [43],0.0625 µg/mL
